In patent EP4782431A1 (Suzhou Merna Therapeutics Co. Ltd, priority 2023, dated 2025):

What was measured:
HaCaT cells = experiment: m6A methylation level of drug-treated HaCaT keratinocytes by nanopore sequencing; type: cell-based, human; details: 50 nM drug, 24 hours, vs blank control group
Experimental: 1*10^8 HaCaT cells were seeded in culture dishes, into which 50 nM drugs (including sorafenib, capecitabine, docetaxel, and osimertinib) were added, respectively. The cells were cultured in an incubator containing 5% CO2 at 37°C for 24 hours and washed with PBS after culture media were removed. Centrifugation was performed, the supernatant was discarded, and then, 400 µL of an RLT cell lysis buffer (QIAGEN, Cat.#79216) was added. A portion of samples were selected, into which 400 µL of 70% ethanol was added. The mixture was evenly stirred and then transferred to an RNeasy mini column, and RNA was extracted using an RNeasy mini kit (QIAGEN, Cat.#74104). 2 µL of an RNA sample was selected and dissolved in 98 µL of a 10 mM Tris-HCl buffer solution, and the absorbance at 260 nm was measured using a Nanodrop (Thermo Fisher Scientific) to determine the RNA concentration.
40 µg of an RNA sample was selected for enrichment of mRNA (PolyA+RNA) using an NEBNext Poly(A) mRNA magnetic isolation module (NEB, Cat.#E7490), and then, a 3' end of the above enriched mRNA (PolyA+RNA) molecule was ligated with reverse transcription adapter RTA using a direct RNA sequencing kit (Oxford Nanopore Technologies, Cat.#SQK-RNA002). A reverse transcription reaction was performed with the mRNA (PolyA+RNA) molecule as a template to synthesize a complementary strand, a terminal end of the reverse transcription adapter RTA was ligated with a sequencing adapter (RNA adapter) to form a final sequencing library, and quantitative detection was performed using a Qubit™ dsDNA HS assay kit (Invitrogen, Cat.#LOT2133187).
After quality inspection of the library, the prepared sequencing library was loaded onto a PromethION flow cell chip (Oxford Nanopore Technologies, Cat.#FLO-MIN106D), and placed in a PromethION sequencer (Oxford Nanopore Technologies) for sequencing by selecting a matched sequencing mode. Basecalling was performed on sequencing data through guppy, and m6A methylation analysis was performed on original fast5 data.

[1] = test system: chemotherapeutic drug-induced mouse model with hand-foot syndrome; experiment: chemotherapeutic drug-induced mouse model with hand-foot syndrome; type: in vivo, ICR mice; details: for infiltration of inflammatory cells / thickening of the epidermal layer and the stratum corneum in the skin tissues / swelling of the toes caused by the modeling drugs: capecitabine and docetaxel models; for infiltration of inflammatory cells / thickening of the epidermal layer and the stratum corneum in the skin tissues / expression level of cytokine IL-8 in the skin tissues of the hind limb toes of the mice / expression level of cytokine IL-6 in the skin tissues of the hind limb toes of the mice: 3% ointment topical or nicotinamide 100 mg/kg oral; for swelling of the toes caused by the modeling drugs: compound of formula (I) 3% ointment topical or nicotinamide 100 mg/kg oral, once daily 16 days; for expression level of cytokine IL-8 in the skin tissues of the hind limb toes of the mice: capecitabine model; for expression level of cytokine IL-6 in the skin tissues of the hind limb toes of the mice: docetaxel model
Description: After adaptive feeding for 7 days, SPF-grade ICR mice (male, 5-6 weeks old, with a body weight of approximately 35 g) were randomly divided into groups, including a blank control group (6 mice), a capecitabine modeling group (6 mice), a docetaxel modeling group (6 mice), a capecitabine + compound of formula (I) group (6 mice), a docetaxel + compound of formula (I) group (6 mice), a capecitabine + nicotinamide group (6 mice), and a docetaxel + nicotinamide group (6 mice). The groups were respectively administered corresponding modeling drugs by oral gavage (capecitabine at 200 mg/kg and docetaxel at 25 mg/kg) once daily; and the blank control group was administered an equivalent volume of normal saline. After administration with the chemotherapeutic drugs for 2 weeks, the ointments containing the compound of formula (I) (at a compound content of 3%) used in Example 10 were respectively applied topically in the groups, or nicotinamide was orally administered (100 mg/kg) once daily continuously for 16 days.
Measurement of the degree of swelling of toes: The degree of swelling of hind limb toes of the mice was measured using a toe swelling tester (KW-7C, Nanjing Calvin Biotechnology Co., Ltd.) before administration with the modeling drugs, after administration with the modeling drugs for 2 weeks, and before sacrifice, respectively. Before measurement, ankle joints of hind feet of the mice were marked at same positions before administration, after administration for 2 weeks, and before sacrifice. During measurement, water was properly located at the same level as the marked positions, and numerical values were recorded after becoming stable.
Pathological staining of skin tissues: Skin tissue samples were selected from hind limb toes of the mice and placed in 4% paraformaldehyde for fixation at room temperature for 4 hours. Then, the tissues were taken out and rinsed with running water for several hours. The samples were subjected to dehydration treatment with 70%, 80%, and 90% ethanol solutions, followed by treatment with a mixed solution of equal amounts of absolute alcohol and xylene for 15 minutes, and then permeabilized twice with a xylene solution for 15 minutes each time until the samples became transparent. The samples were placed in a mixture of half xylene and half paraffin for soaking for 15 minutes, and then, paraffin I and paraffin II were added for wax penetration for one hour, respectively. After embedding with paraffin, the samples were sectioned, baked, dewaxed, and hydrated. Then, the hydrated sections were placed in a hematoxylin solution (ZSGB-BIO, article No. 23041001) for staining for 3 minutes, and a differentiation solution of hydrochloric acid in ethanol was added for differentiation for 15 seconds. After rinsing with water, a Scott bluing solution (Servicebio, article No. 20230801) was added for bluing for 15 seconds. After rinsing with running water, the sections were stained with an eosin solution (Solarbio, article No. 33535) for 3 minutes, rinsed with running water, dehydrated, permeabilized, sealed, and inspected under a microscope.
Immunohistochemical staining: After baking, dewaxing, and hydration, paraffin sections of skin tissues of hind limb toes of the mice were subjected to antigen retrieval using a 0.2 M citric acid buffer solution (containing 1.534 g of citric acid, 3.1 g of sodium citrate, and 100 mL of distilled water, pH 4.7). Endogenous […] was removed using 3% hydrogen peroxide (Shandong Annjet High-Tech Disinfection Technology Co., Ltd., article No. 20290902), and the sections were incubated at room temperature for 10 minutes and then fully rinsed with a PBS buffer solution (containing 8 g of NaCl, 0.2 g of KCl, 1.44 g of Na2HPO4, and 1 M HCl, pH 7.4). The sections were permeabilized with 0.5% Triton-X-100 (AmyJet Scientific, article No. A-CSH436-100 mL), respectively permeabilized with mouse anti-IL-1β and rabbit IL-8 for 10 minutes, and not permeabilized with rabbit anti-IL-6. […]

CNC(=O)c1cc(Oc2ccc(NC(=O)Nc3ccc(Cl)c(C(F)(F)F)c3)cc2)ccn1 [Sorafenib, sorafenib]
m6A methylation levels of HaCaT cells higher than that of the control group (HaCaT cells): 5.05 fold

C=CC(=O)Nc1cc(Nc2nccc(-c3cn(C)c4ccccc34)n2)c(OC)cc1N(C)CCN(C)C [Osimertinib, osimertinib]
m6A methylation levels of HaCaT cells higher than that of the control group (HaCaT cells): 5.13 fold

NC(=O)[C@H]1CCCc2c1[nH]c1ccc(Cl)cc21 [Compound of formula (I), (S)-6-chloro-2,3,4,9-tetrahydro-1H-carbazole-carboxamide]
infiltration of inflammatory cells [1]: no infiltration of inflammatory cells observed
thickening of the epidermal layer and the stratum corneum in the skin tissues [1]: effectively alleviate
swelling of the toes caused by the modeling drugs [1]: significantly alleviate
expression level of cytokine IL-8 in the skin tissues of the hind limb toes of the mice [1]: significantly decrease
expression level of cytokine IL-6 in the skin tissues of the hind limb toes of the mice [1]: significantly decrease

NC(=O)c1cccnc1 [Nicotinamide, nicotinamide]
infiltration of inflammatory cells [1]: infiltration of inflammatory cells still observed
thickening of the epidermal layer and the stratum corneum in the skin tissues [1]: mildly alleviated
swelling of the toes caused by the modeling drugs [1]: not observed that oral administration of nicotinamide at 100 mg/kg significantly alleviated the swelling
expression level of cytokine IL-8 in the skin tissues of the hind limb toes of the mice [1]: didn't have a significant impact
expression level of cytokine IL-6 in the skin tissues of the hind limb toes of the mice [1]: didn't have a significant impact
